Results published in ChEMBL document CHEMBL4732252, “Generating Selective Leads for Mer Kinase Inhibitors-Example of a Comprehensive Lead-Generation Strategy” (J Med Chem, 2021).
Converted amounts (≈) assume the structure as drawn.

Experiments:
[1] = molecular target: T1, Tyrosine-protein kinase receptor UFO (Homo sapiens, UniProt P30530); assay: (§1) Inhibition of GST-tagged AXL (unknown origin) (464 to 485 residues) using Axltide (CKKSRGDYMTMQJG-acid) peptide as substrate preincubated for 30 mins followed by substrate and ATP addition at Km concentration measured after 180 mins by RapidFire LC-MS analysis
T1 sequence (P30530 whole entry): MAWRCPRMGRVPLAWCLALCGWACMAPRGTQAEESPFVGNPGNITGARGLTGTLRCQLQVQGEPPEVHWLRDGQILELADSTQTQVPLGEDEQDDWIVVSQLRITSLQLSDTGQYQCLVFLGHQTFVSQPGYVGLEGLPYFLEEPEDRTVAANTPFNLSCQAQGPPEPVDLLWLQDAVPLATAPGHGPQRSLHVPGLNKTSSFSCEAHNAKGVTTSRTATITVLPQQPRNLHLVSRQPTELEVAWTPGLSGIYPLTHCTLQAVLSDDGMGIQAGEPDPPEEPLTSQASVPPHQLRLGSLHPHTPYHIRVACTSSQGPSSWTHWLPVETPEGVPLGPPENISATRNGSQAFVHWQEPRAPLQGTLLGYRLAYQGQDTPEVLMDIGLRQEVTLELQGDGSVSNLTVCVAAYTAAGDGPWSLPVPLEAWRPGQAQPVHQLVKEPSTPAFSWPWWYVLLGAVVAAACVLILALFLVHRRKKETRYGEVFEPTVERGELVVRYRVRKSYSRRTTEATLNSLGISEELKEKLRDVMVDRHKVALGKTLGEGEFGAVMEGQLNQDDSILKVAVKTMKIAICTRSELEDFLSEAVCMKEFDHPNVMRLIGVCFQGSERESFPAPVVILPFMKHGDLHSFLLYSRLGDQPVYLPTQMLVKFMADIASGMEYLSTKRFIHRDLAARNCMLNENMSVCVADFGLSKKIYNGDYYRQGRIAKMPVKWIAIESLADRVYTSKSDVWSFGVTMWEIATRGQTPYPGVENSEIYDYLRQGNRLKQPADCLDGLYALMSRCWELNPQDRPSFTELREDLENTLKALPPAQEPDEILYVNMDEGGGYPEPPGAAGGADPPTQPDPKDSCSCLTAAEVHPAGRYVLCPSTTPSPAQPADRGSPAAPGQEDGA

[2] = molecular target: T2, Tyrosine-protein kinase Mer (Homo sapiens, UniProt Q12866); assay: as §1, with “6His/thrombin cleavage site-fused Avi-tagged dephosphorylated MER” for “GST-tagged AXL”, “(R528” for “(464”, “M999” for “485”, “120” for “180”
T2 sequence (Q12866 whole entry): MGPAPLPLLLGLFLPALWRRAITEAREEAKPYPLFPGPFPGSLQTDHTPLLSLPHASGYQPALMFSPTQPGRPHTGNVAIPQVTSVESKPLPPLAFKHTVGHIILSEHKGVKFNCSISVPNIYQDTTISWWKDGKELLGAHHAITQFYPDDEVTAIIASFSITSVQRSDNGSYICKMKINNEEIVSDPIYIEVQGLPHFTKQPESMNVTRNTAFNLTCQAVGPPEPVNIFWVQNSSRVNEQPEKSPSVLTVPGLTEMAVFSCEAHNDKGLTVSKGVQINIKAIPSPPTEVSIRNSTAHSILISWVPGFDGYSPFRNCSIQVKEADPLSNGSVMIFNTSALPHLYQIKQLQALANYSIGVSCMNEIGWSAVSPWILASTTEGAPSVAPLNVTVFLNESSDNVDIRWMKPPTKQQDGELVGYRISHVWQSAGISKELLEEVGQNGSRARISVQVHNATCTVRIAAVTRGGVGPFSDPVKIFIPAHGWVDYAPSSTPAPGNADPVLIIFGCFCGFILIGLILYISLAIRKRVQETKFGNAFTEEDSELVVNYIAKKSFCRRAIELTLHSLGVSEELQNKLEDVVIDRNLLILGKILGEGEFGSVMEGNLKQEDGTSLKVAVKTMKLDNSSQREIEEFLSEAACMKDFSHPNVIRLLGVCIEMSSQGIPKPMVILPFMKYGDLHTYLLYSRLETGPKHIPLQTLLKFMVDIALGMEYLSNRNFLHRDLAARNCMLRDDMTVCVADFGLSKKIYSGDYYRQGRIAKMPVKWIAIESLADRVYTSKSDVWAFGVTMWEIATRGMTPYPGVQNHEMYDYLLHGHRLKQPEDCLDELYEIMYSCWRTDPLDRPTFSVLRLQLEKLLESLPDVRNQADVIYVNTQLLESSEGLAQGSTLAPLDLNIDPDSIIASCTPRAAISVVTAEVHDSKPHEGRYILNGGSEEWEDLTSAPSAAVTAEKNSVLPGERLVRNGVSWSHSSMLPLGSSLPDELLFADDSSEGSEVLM

[3] = molecular target: T3, Receptor-type tyrosine-protein kinase FLT3 (Homo sapiens, UniProt P36888); assay: Inhibition of His6/TEV fused-GST-tagged Flt3 (unknown origin) (H564 to S993 residues) using Axltide (CKKSRGDYMTMQJ-acid) peptide as substrate preincubated for 30 mins followed by substrate and ATP addition at Km concentration measured after 75 mins by RapidFire LC-MS analysis
T3 sequence (P36888 whole entry): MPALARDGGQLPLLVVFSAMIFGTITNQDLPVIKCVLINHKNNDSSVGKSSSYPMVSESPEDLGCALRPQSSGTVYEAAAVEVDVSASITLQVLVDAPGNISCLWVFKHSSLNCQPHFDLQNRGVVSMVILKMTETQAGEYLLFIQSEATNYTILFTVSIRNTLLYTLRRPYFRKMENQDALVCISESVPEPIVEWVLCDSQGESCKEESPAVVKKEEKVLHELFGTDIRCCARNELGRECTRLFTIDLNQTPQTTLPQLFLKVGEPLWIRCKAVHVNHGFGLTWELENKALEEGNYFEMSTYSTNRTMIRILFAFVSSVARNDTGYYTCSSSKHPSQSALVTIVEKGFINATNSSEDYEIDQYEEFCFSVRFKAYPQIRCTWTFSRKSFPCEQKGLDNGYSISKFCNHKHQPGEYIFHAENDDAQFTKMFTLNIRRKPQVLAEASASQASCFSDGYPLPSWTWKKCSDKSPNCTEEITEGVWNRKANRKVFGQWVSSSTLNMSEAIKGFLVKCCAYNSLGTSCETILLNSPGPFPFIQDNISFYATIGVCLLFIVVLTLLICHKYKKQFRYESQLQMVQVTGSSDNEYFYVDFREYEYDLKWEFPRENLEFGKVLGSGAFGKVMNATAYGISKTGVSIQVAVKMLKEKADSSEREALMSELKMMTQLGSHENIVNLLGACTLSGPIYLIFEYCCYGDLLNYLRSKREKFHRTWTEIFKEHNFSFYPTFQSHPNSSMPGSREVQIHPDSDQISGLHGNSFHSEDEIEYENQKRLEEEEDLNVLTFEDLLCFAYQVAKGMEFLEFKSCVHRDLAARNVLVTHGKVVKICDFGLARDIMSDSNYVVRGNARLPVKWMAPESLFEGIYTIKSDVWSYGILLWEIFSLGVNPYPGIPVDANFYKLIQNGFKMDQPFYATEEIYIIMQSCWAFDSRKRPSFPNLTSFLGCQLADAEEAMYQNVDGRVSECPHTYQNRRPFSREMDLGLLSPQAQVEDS

[4] = Intrinsic clearance in rat hepatocytes assessed per 10^6 cells; type: ADME, cell-based, Hepatocyte; settings: read-out: CLH
[5] = Intrinsic clearance in human liver microsomes; type: ADME, Microsome; settings: read-out: CLH
[6] = Distribution coefficient, logD of compound at pH 7.4; type: physicochemical; settings: octanol/water
[7] = Aqueous solubility of the compound; type: physicochemical
[8] = molecular target: T1, Tyrosine-protein kinase receptor UFO; assay: Inhibition of GST-tagged AXL (unknown origin) ([…] residues) using Axltide (CKKSRGDYMTMQJG-acid) peptide as substrate preincubated for 30 mins followed by substrate and ATP addition at Km concentration measured after 40 mins by ADP-Glo Reagent based method
[9] = molecular target: T3, Receptor-type tyrosine-protein kinase FLT3; assay: Inhibition of His6/TEV fused-GST-tagged Flt3 (unknown origin) (H564 to S993 residues) using Axltide (CKKSRGDYMTMQJ-acid) peptide as substrate preincubated for 30 mins followed by substrate addition in presence of ATP and measured for 90 mins by ADP-Glo Reagent based method

| SMILES | IC50 [1] [nM] | IC50 [2] [nM] | IC50 [3] [nM] | hepatocyte CLint [4] [µL/min/1e6 cells] | microsomal CLint [5] [µL/min/mg] | logD [6] | solubility [7] [µM] | IC50 [8] [nM] | IC50 [9] [nM] |
| --- | --- | --- | --- | --- | --- | --- | --- | --- | --- |
| CNC(=O)c1cnc(Nc2ccc(OC)cc2C)nc1NC1CCCC1 | – | 794 | – | 130 | 37 | 4.2 | 10 (≈ 3.55 µg/mL) | 31600 | > 79400 |
| COc1cc2c(Nc3cnc(NC(=O)c4cccn4C)nc3)ncnc2cc1OCCCNC1CCCC1 | – | 100 | – | < 1 | < 3 | 1.8 | 1000 (≈ 517 µg/mL) | 126 | 10000 |
| CS(=O)(=O)c1cnc(Nc2ccc(O)cc2)nc1NCc1ccccc1 | 1580 | 398 | 1260 | 32 | 5 | 2.8 | 27 (≈ 10 µg/mL) | – | – |
| CNc1nc(OC2CCCC2)nc2c1ncn2Cc1c(F)cccc1F | – | 126 | – | 190 | 240 | 4.3 | 9 (≈ 3.23 µg/mL) | 794 | 100000 |

Molecules with a lower IC50 [2], results first:

| IC50 [1] [nM] | IC50 [2] [nM] | IC50 [3] [nM] | hepatocyte CLint [4] [µL/min/1e6 cells] | microsomal CLint [5] [µL/min/mg] | logD [6] | solubility [7] [µM] | IC50 [8] [nM] | IC50 [9] [nM] | SMILES |
| --- | --- | --- | --- | --- | --- | --- | --- | --- | --- |
| 398 | 6.31 | 3.16 | 9 | 16 | 4.5 | 3 (≈ 1.78 µg/mL) | – | – | O=C(Nc1ccc(Oc2cc(NC(=O)C3CC3)ncn2)cc1)Nc1ccc(CN2CCn3ccnc3C2)c(C(F)(F)F)c1 |
| 10 | 0.794 | 20 | 2 | 96 | 4.5 | 130 (≈ 67.7 µg/mL) | – | – | COc1cc2c(Nc3cnc(OCCCC4CCCC4)nc3)ncnc2cc1OCCCN1CCCCC1 |
